{
  "source": "patent US20120004272A1",
  "about": "“BIOCIDAL COMPOSITION OF 2,6-DIMETHYL-M-DIOXANE-4-OL ACETATE AND METHODS OF USE” (priority 2009, published 2012)",
  "key": {"[1]": {"system": "Pseudomonas aeruginosa (ATCC#15442, ATCC#10145), Enterobacter aerogenes, Escherichia coli, Klebsiella pneumoniae, Staphylococcus aureus, Salmonella …", "experiment": "Preservative efficacy (multi-challenge, 96-deep well) in spinning finish emulsion", "assay_type": "cell-based", "settings": "Day 27, post 4th microbial challenge; ppm active"}, "[2]": {"system": "Pseudomonas aeruginosa (ATCC#15442, ATCC#10145), Enterobacter aerogenes, Escherichia coli, Klebsiella pneumoniae, Staphylococcus aureus, Salmonella …", "experiment": "Preservative efficacy (multi-challenge, 96-deep well) in water-based latex paint, pH 7.4", "assay_type": "cell-based"}, "[3]": {"settings": "Day 15, after four bacterial challenges, ppm active"}, "[4]": {"settings": "Day 20, after four bacterial challenges, ppm active"}},
  "data": [
    {"compound": "O=[N+]([O-])C(CO)(CO)CO", "note": "[TN, 2-Hydroxymethyl-2-nitro-1,3-propanediol]", "values": [
      {"measurement": "TN alone (ppm), concentration necessary for ≧6 log10 microbial kill", "setting": "[1]", "result": 592, "unit": "ppm"}
    ]},
    {"compound": "CC(=O)OC1CC(C)OC(C)O1", "note": "(stereo not shown) [DMX, 2,6-Dimethyl-m-dioxan-4-ol acetate]", "values": [
      {"measurement": "DMX alone (ppm), concentration required for ≧4 log10 microbial kill", "setting": "[2]; [3]", "result": 1740, "unit": "ppm"},
      {"measurement": "log10 viable microorganisms, DMX alone", "setting": "[2]; Day 15, DMX 102 ppm", "result": 7, "unit": "log10"},
      {"measurement": "log10 viable microorganisms, DMX alone", "setting": "[2]; Day 15, DMX 153 ppm", "result": 7, "unit": "log10"},
      {"measurement": "log10 viable microorganisms, DMX alone", "setting": "[2]; Day 15, DMX 229 ppm", "result": 8, "unit": "log10"},
      {"measurement": "log10 viable microorganisms, DMX alone", "setting": "[2]; Day 15, DMX 344 ppm", "result": 8, "unit": "log10"},
      {"measurement": "log10 viable microorganisms, DMX alone", "setting": "[2]; Day 15, DMX 516 ppm", "result": 7, "unit": "log10"},
      {"measurement": "log10 viable microorganisms, DMX alone", "setting": "[2]; Day 15, DMX 773 ppm", "result": 8, "unit": "log10"},
      {"measurement": "log10 viable microorganisms, DMX alone", "setting": "[2]; Day 15, DMX 1160 ppm", "result": 5, "unit": "log10"},
      {"measurement": "log10 viable microorganisms, DMX alone", "setting": "[2]; Day 15, DMX 1740 ppm", "result": 0, "unit": "log10"},
      {"measurement": "DMX alone (ppm), concentration required for ≧4 log10 microbial kill", "setting": "[2]; [4]", "result": 1740, "unit": "ppm"},
      {"measurement": "log10 viable microorganisms, DMX alone", "setting": "[2]; Day 20, DMX 102 ppm", "result": 8, "unit": "log10"},
      {"measurement": "log10 viable microorganisms, DMX alone", "setting": "[2]; Day 20, DMX 153 ppm", "result": 8, "unit": "log10"},
      {"measurement": "log10 viable microorganisms, DMX alone", "setting": "[2]; Day 20, DMX 229 ppm", "result": 8, "unit": "log10"},
      {"measurement": "log10 viable microorganisms, DMX alone", "setting": "[2]; Day 20, DMX 344 ppm", "result": 8, "unit": "log10"},
      {"measurement": "log10 viable microorganisms, DMX alone", "setting": "[2]; Day 20, DMX 516 ppm", "result": 8, "unit": "log10"},
      {"measurement": "log10 viable microorganisms, DMX alone", "setting": "[2]; Day 20, DMX 773 ppm", "result": 8, "unit": "log10"},
      {"measurement": "log10 viable microorganisms, DMX alone", "setting": "[2]; Day 20, DMX 1160 ppm", "result": 8, "unit": "log10"},
      {"measurement": "log10 viable microorganisms, DMX alone", "setting": "[2]; Day 20, DMX 1740 ppm", "result": 4, "unit": "log10"},
      {"measurement": "DMX alone (ppm), concentration necessary for ≧6 log10 microbial kill", "setting": "[1]", "result": 1339, "unit": "ppm"}
    ]},
    {"compound": "CC1(C)COCN1", "note": "[DMO, 4,4-Dimethyloxazolidine]", "values": [
      {"measurement": "DMO alone (ppm), concentration required for ≧4 log10 microbial kill", "setting": "[2]; [3]", "result": 308, "unit": "ppm"},
      {"measurement": "log10 viable microorganisms, DMO alone score", "setting": "[2]; Day 15, DMO 91 ppm", "result": 8, "unit": "log10"},
      {"measurement": "log10 viable microorganisms, DMO alone score", "setting": "[2]; Day 15, DMO 137 ppm", "result": 7, "unit": "log10"},
      {"measurement": "log10 viable microorganisms, DMO alone score", "setting": "[2]; Day 15, DMO 205 ppm", "result": 6, "unit": "log10"},
      {"measurement": "log10 viable microorganisms, DMO alone score", "setting": "[2]; Day 15, DMO 308 ppm", "result": 0, "unit": "log10"},
      {"measurement": "log10 viable microorganisms, DMO alone score", "setting": "[2]; Day 15, DMO 463 ppm", "result": 0, "unit": "log10"},
      {"measurement": "log10 viable microorganisms, DMO alone score", "setting": "[2]; Day 15, DMO 693 ppm", "result": 0, "unit": "log10"},
      {"measurement": "log10 viable microorganisms, DMO alone score", "setting": "[2]; Day 15, DMO 1040 ppm", "result": 0, "unit": "log10"},
      {"measurement": "log10 viable microorganisms, DMO alone score", "setting": "[2]; Day 15, DMO 1560 ppm", "result": 0, "unit": "log10"},
      {"measurement": "DMO alone (ppm), concentration necessary for ≧6 log10 microbial kill", "setting": "[1]", "result": 355, "unit": "ppm"}
    ]},
    {"compound": "CCC12COCN1COC2", "note": "[EBCO, 7-Ethyl-bicyclooxazolidine]", "values": [
      {"measurement": "EBCO alone (ppm), concentration required for ≧4 log10 microbial kill", "setting": "[2]; [4]", "result": 1920, "unit": "ppm"},
      {"measurement": "log10 viable microorganisms, EBCO alone score", "setting": "[2]; Day 20, EBCO 112 ppm", "result": 8, "unit": "log10"},
      {"measurement": "log10 viable microorganisms, EBCO alone score", "setting": "[2]; Day 20, EBCO 169 ppm", "result": 8, "unit": "log10"},
      {"measurement": "log10 viable microorganisms, EBCO alone score", "setting": "[2]; Day 20, EBCO 252 ppm", "result": 8, "unit": "log10"},
      {"measurement": "log10 viable microorganisms, EBCO alone score", "setting": "[2]; Day 20, EBCO 379 ppm", "result": 7, "unit": "log10"},
      {"measurement": "log10 viable microorganisms, EBCO alone score", "setting": "[2]; Day 20, EBCO 569 ppm", "result": 7, "unit": "log10"},
      {"measurement": "log10 viable microorganisms, EBCO alone score", "setting": "[2]; Day 20, EBCO 853 ppm", "result": 8, "unit": "log10"},
      {"measurement": "log10 viable microorganisms, EBCO alone score", "setting": "[2]; Day 20, EBCO 1280 ppm", "result": 7, "unit": "log10"},
      {"measurement": "log10 viable microorganisms, EBCO alone score", "setting": "[2]; Day 20, EBCO 1920 ppm", "result": 0, "unit": "log10"}
    ]},
    {"compound": "ClC=CC[N+]12CN3CN(CN(C3)C1)C2.[Cl-]", "note": "[CTAC]", "values": [
      {"measurement": "CTAC alone (ppm), concentration necessary for ≧6 log10 microbial kill", "setting": "[1]", "result": 582, "unit": "ppm"}
    ]}
  ]
}
